Data as given in patent publication US20170008876A1, “Metal Chelate Compounds for Binding to the Platelet Specific Glycoprotein IIb/IIIa” (BAYER PHARMA AKTIENGESELLSCHAFT, priority 2014, published 2017).
Like-named read-outs stand apart in the source and are kept apart here.

What was measured:
[1] = biological target: human GPIIb/IIIa receptor (Homo sapiens, UniProt P05106+P08514); test: biochemical
Method: Affinity assay: In the first step human GPIIb/IIIa purified from human platelets was immobilized on a 96-well solid plate. After 48 hours the plates were washed and the unspecific binding sites were blocked with Roti®-Block. […] In the next step, the plates were simultaneously incubated with a tritium labeled known GPIIb/IIIa binder (^3H) mixed with increasing concentrations of the novel compounds (inhibitor). […] The fraction of tritiated compound (^3H), which is not displaced by inhibitor, was measured in a microplate scintillation counter. […]
The maximum value of tritiated reference compound was determined without addition of inhibitor (n=8). […]
After one hour the plate was washed three times with phosphate-buffered saline (200 μL per well, Dulbecco's Phosphate Buffered Saline (D-PBS (+)), GIBCO®, Invitrogen). […] After 15 min at room temperature the plates were measured at the microplate scintillation counter (TopCount NXT v2.13, Perkin Elmer, Packard Instrument Company).
In the first step human glycoprotein IIb/IIIa, which is purified from human platelets, was immobilized on a 96-well solid plate. […] The fraction of tritiated reference compound, which is not displaced by inhibitor, was measured at a microplate scintillation counter. […] By means of this assay the affinities (1050 values) could be determined.

[2] = test system: human activated platelets; test: Binding of compounds to human activated platelets (Gd by ICP-MS in pellet and supernatant); type: cell-based
Method: For each experiment fresh blood was taken from a volunteer using 10 mL citrate-tubes (Sarstedt S-Monovette 02.1067.001, 10 mL, Citrate 3.13%). The 10 mL citrate-tubes were carefully inverted 10 times to mix blood and anticoagulant. The tubes were stored in an incubator at a temperature of 37° C. until centrifugation (Heraeus miniTherm CTT with integrated rotation- and turning device, turning speed: 19 rotations per minute, Heraeus Instruments GmbH, Hanau/Germany).
For plasma preparation tube centrifugation was carried out for 15 minutes at 1811 g at room temperature (Eppendorf, Centrifuge 5810R). To produce platelet-rich plasma blood was centrifuged 15 minutes at 201 g at room temperature. The tubes were stood for 30 min at room temperature to get a better separation. The separated platelet-rich plasma was finally centrifuged for further 3 min at 453 g to remove the remaining erythrocytes. The platelet-rich plasma was activated using a final concentration of 5 μM Adenosindiphosphate (ADP, Sigma). The activated platelet-rich plasma was incubated 20 minutes […] with different concentrations of gadolinium-labeled compound and subsequently was centrifuged 3 minutes at 1360 g. 20 μL of supernatant was taken to determine the concentration (n=3). The pellet was resuspended and washed two times with at least 750 μL plasma and subsequently was redispered in 750 μL plasma and 50 μL calciumchloride (50 μL 2%).

thrombus = settings: 40 min after last injection; for Gadolinium concentration: 4 repeated doses of 1 μM Gadolinium/kg bw i.v.; for thrombus/blood ratio: total dose 4 μM Gadolinium/kg bw
Method: The specific binding of the compound described in Example 1 was investigated in cynomolgus monkey (female 3.0 kg bodyweight).
The monkey was anesthetized with a mixture of Xylazin (Rompun®, Bayer HealthCare, Leverkusen, Germany), 0.12 mL/Kg and Ketamine (Ketavet®, Pfizer) 0.12 mL/Kg b.w. i.m. While the investigation, small amounts of Xylazin/Ketamine (1+1) have been injected i.m. if required. The left common carotid artery was exposed 10 min with iron-III-chloride solution (10%). Following thrombus induction the monkey received 1 μmol Gadolinium/kg bodyweight (equals 0.125 μmol molecule/kg bodyweight) i.v. Afterwards, the right carotid artery was exposed 8 min with iron-III-chloride solution (10%) and the monkey received a repeated dose of 1 μmol Gadolinium/kg bodyweight iv.
After the first two contrast media applications the right carotid artery was exposed surgically and a polyethylene-tube ([…] Polyethylene Tubing, Clay Adams, PE50), which was roughened previously by sandpaper (600—CAMI Grit designation), was inserted into the vessel, advanced into the descending aorta and was left there for 30 minutes to allow for the development of a thrombus on the rough surface of the tube. The monkey received 1 μmol Gadolinium/kg bodyweight (equals 0.125 μmol molecule/kg bodyweight) i.v. 30 min and 90 min post catheterization. 40 min after the last contrast media application the animal was sacrificed using Pentobarbital (Narcoren). The gadolinium concentrations in blood, thombus of the left and right carotis, right carotis, left carotis, jugular vein and aorta were determined using an inductively coupled plasma mass spectrometry (ICP-MS Agilent 7500a).

[3] = test system: in vitro platelet-rich thrombi; test: Magnetic resonance imaging of in vitro platelet-rich thrombi; type: cell-based, human; settings: 20 min incubation, washed three times, 1.5 T 3D TSE
Method: Magnetic resonance imaging of in vitro platelet-rich thrombi and incubation solution (example 1) using a 3D turbo spin echo sequence (1.5 T, Siemens Avanto, small extremity coil, TR 1050 ms, TE 9.1 ms, 0.5×0.5×0.6 mm^3). In FIG. 2a an in vitro control thrombus without the addition of a contrast agent is shown. The signal intensity of the control thrombus is slightly higher than the surrounding medium but clearly lower than the signal of the in vitro thrombus which was incubated with Example 1 as depicted in FIG. 2b. In FIG. 2c the incubation solution with a final concentration of 10 μmol substance/L of example 1 in human plasma is represented. The signal intensity is higher than the surrounding plasma solutions in the in vitro platelet-rich thrombi 2a and 2b.
The in vitro thrombus in FIG. 2b is incubated with the solution which is depicted in FIG. 2c. After 20 min incubation period the thrombi was washed three times with plasma solution.
Magnetic resonance imaging of in vitro platelet-rich thrombi and incubation solution (Example 1) using a 3D turbo spin echo sequence (1.5 T, Siemens Avanto, small extremity coil, TR 1050 ms, TE 9.1 ms, 0.5×0.5×0.6 mm^3). In FIG. 3a an in vitro control thrombus without the addition of a contrast agent is shown. […]

[4] = incubation concentration 1 μM molecule, incubation time 3 min
[5] = incubation concentration 1 μM molecule, incubation time 20 min
[6] = incubation concentration 10 μM molecule, incubation time 20 min

human GPIIb/IIIa receptor, sequence (P08514 32-887 limits assumed): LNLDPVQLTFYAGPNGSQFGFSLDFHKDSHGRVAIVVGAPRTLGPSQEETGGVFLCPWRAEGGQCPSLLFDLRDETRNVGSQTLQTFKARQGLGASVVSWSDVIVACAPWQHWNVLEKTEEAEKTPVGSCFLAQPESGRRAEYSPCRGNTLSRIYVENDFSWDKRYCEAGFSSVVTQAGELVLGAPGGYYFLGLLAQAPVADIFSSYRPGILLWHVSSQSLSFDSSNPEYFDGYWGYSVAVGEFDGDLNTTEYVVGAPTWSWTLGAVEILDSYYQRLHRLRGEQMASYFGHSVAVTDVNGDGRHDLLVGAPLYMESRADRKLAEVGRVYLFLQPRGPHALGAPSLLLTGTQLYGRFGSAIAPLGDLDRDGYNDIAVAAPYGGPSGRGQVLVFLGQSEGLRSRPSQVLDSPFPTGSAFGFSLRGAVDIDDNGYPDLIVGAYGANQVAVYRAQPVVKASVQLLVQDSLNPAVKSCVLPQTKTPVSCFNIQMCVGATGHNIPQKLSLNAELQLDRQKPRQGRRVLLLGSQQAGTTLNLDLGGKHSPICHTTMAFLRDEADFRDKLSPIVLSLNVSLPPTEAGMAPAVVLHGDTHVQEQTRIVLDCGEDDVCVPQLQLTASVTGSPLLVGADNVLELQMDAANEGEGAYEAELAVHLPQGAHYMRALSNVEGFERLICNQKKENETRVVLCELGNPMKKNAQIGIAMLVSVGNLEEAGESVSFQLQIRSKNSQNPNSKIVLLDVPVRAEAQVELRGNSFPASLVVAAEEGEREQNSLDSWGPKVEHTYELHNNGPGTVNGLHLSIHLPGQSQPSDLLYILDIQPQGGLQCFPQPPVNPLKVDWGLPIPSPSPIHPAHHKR
human GPIIb/IIIa receptor, sequence (P05106 27-788): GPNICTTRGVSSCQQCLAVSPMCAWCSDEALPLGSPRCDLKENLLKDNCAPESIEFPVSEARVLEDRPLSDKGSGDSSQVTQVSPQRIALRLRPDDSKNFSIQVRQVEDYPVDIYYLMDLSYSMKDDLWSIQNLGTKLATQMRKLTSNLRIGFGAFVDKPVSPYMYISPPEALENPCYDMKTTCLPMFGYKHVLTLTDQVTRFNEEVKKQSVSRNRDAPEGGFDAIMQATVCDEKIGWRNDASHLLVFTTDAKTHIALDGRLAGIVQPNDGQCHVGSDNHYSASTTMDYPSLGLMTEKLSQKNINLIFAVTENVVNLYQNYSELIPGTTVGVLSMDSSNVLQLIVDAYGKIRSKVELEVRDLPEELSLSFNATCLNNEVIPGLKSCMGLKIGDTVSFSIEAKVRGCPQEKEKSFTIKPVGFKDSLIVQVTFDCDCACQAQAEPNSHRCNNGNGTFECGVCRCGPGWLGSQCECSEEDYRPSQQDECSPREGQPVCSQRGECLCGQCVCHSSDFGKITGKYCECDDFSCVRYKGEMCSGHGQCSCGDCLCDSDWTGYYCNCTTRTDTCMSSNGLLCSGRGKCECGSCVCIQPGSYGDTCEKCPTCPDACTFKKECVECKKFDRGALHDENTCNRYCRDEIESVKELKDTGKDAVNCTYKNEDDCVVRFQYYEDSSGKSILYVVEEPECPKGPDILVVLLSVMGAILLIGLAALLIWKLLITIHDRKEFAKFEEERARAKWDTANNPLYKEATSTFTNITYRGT

SMILES: CC(C(=O)NCC(=O)NCC(NC(=O)CNC(=O)C(C)N1CCN(CC(=O)O)CCN(CC(=O)O)CCN(CC(=O)O)CC1)C(=O)NCC(NC(=O)C(CNC(=O)CNC(=O)C(C)N1CCN(CC(=O)O)CCN(CC(=O)O)CCN(CC(=O)O)CC1)NC(=O)CNC(=O)C(C)N1CCN(CC(=O)O)CCN(CC(=O)O)CCN(CC(=O)O)CC1)C(=O)NCC(NC(=O)C(CNC(=O)C(CNC(=O)CNC(=O)C(C)N1CCN(CC(=O)O)CCN(CC(=O)O)CCN(CC(=O)O)CC1)NC(=O)CNC(=O)C(C)N1CCN(CC(=O)O)CCN(CC(=O)O)CCN(CC(=O)O)CC1)NC(=O)C(CNC(=O)CNC(=O)C(C)N1CCN(CC(=O)O)CCN(CC(=O)O)CCN(CC(=O)O)CC1)NC(=O)CNC(=O)C(C)N1CCN(CC(=O)O)CCN(CC(=O)O)CCN(CC(=O)O)CC1)C(=O)NCCCCc1cccc(C#Cc2cncc([C@H](CC(=O)O)NC(=O)[C@@H]3CCCN(C(=O)CCC4CCNCC4)C3)c2)c1)N1CCN(CC(=O)O)CCN(CC(=O)O)CCN(CC(=O)O)CC1 (stereo partly drawn) [Example 1, Octagadolinium 2,3-bis-{[2,3-bis({2,3-bis[(N-{2-[4,7,10-tris(carboxylatomethyl)-1,4,7,10-tetraazacyclododecan-1-yl]propanoyl}glycyl)amino]propanoyl}amino)propanoyl]amino}-N-(4-{3-[(5-{(1S)-2-carboxy-1-[({(3R)-1-[3-(piperidin-4-yl)propanoyl]piperidin-3-yl}carbonyl)amino]ethyl}pyridin-3-yl)ethynyl]phenyl}butyl)propanamide]
- IC50 [1]: 40 nM
- Concentration within platelet pellet ([2]; incubation concentration 0.1 μM molecule, incubation time 20 min): 28.2 ± 1.8 μM Gd
- Concentration within platelet pellet [2, 4]: 32.7 ± 7.8 μM Gd
- pellet/supernatant [2, 4]: 131 ± 36
- Concentration within platelet pellet [2, 5]: 28.8 ± 2.2 μM Gd
- pellet/supernatant [2, 5]: 108 ± 18
- Concentration within platelet pellet [2, 6]: 35.9 ± 1.6 μM Gd
- pellet/supernatant [2, 6]: 81 ± 5
- Gadolinium concentration (thrombus; blood): 3.3 ± 0.7 (n = 5) μM Gd
- Gadolinium concentration (thrombus; left carotis): 9.4 ± 0.4 (n = 4) μM Gd
- Gadolinium concentration (thrombus; right carotis): 4.3 ± 0.7 (n = 4) μM Gd
- Gadolinium concentration (thrombus; right jugular vein): 4.0 μM Gd
- Gadolinium concentration (thrombus; thrombus left carotis): 29.3 μM Gd
- thrombus/blood ratio (thrombus; thrombus left carotis): 8.9
- Gadolinium concentration (thrombus; thrombus right carotis): 41.0 μM Gd
- thrombus/blood ratio (thrombus; thrombus right carotis): 12.4
- MRI signal intensity of incubated in vitro thrombus versus control thrombus ([3]; 0.1 μmol substance/L (0.8 μmol Gd/L) in human plasma): clearly higher signal than the control thrombi
- MRI signal intensity of incubated in vitro thrombus versus control thrombus ([3]; 10 μmol substance/L in human plasma): clearly higher signal than the control thrombi
